This is an account of results in patent US11174268B2, “Benzenesulfonamide compouds and their use as therapeutic agents” (Xenon Pharmaceuticals Inc., priority 2016, dated 2021).

One series deals with NaV1.5 (Homo sapiens (Human), UniProt Q14524). Description: Sodium Influx Assay (Flux), NaV1.5. Conditions: read-out: Flux NaV1.5 IC50; Trex HEK293 cells, ANG2 dye, inactivated state.
For series [1], the target named is T1, NaV1.6 (Homo sapiens (Human), UniProt Q9UQD0). Description: Electrophysiological Assay (EP), patch voltage clamp, NaV1.6.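 Also: sodium current recorded at ambient temperature, channels held inactivated then briefly repolarized to −150 mV for 20 ms before a test pulse, control currents in 0.5% DMSO.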 In kind it is cell-based. The note with it: HEK-293 cells, whole-cell patch clamp. (In general: Patch clamp records ionic current or voltage across a cell membrane.)
Series [2] has as its target T1, NaV1.6. Description: Sodium Influx Assay (Flux), NaV1.6.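 Also: Tetracycline-induced cells, compounds applied for one hour at room temperature with modulators holding channels open, IC50 from percent inhibition of sodium influx.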 In kind it is cell-based. Conditions: Trex HEK293 cells, ANG2 dye, inactivated state.
For series [3], the target named is T2, NaV1.1 (Homo sapiens (Human), UniProt P35498). Description: Sodium Influx Assay (Flux), NaV1.1.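 Also: channels co-expressed with human β1 subunit and held open by modulators, cells exposed to compounds for one hour at room temperature, IC50 from percent inhibition of influx.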 In kind it is cell-based. The note with it: Trex HEK293 cells, ANG2 dye, inactivated state.
Series [4] deals with T2, NaV1.1. Description: Electrophysiological Assay (EP), patch voltage clamp, NaV1.1.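 Also: sodium current block measured at ambient temperature, holding at fully inactivating potential, 20 ms repolarization to −150 mV before test pulse, versus 0.5% DMSO control currents.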 In kind it is cell-based. Conditions: HEK-293 cells, whole-cell patch clamp.

One may read the IC50 as the concentration at which inhibition is half-maximal.

Sequence of NaV1.5 (Q14524 other isoform, or with tags, fused parts or gaps): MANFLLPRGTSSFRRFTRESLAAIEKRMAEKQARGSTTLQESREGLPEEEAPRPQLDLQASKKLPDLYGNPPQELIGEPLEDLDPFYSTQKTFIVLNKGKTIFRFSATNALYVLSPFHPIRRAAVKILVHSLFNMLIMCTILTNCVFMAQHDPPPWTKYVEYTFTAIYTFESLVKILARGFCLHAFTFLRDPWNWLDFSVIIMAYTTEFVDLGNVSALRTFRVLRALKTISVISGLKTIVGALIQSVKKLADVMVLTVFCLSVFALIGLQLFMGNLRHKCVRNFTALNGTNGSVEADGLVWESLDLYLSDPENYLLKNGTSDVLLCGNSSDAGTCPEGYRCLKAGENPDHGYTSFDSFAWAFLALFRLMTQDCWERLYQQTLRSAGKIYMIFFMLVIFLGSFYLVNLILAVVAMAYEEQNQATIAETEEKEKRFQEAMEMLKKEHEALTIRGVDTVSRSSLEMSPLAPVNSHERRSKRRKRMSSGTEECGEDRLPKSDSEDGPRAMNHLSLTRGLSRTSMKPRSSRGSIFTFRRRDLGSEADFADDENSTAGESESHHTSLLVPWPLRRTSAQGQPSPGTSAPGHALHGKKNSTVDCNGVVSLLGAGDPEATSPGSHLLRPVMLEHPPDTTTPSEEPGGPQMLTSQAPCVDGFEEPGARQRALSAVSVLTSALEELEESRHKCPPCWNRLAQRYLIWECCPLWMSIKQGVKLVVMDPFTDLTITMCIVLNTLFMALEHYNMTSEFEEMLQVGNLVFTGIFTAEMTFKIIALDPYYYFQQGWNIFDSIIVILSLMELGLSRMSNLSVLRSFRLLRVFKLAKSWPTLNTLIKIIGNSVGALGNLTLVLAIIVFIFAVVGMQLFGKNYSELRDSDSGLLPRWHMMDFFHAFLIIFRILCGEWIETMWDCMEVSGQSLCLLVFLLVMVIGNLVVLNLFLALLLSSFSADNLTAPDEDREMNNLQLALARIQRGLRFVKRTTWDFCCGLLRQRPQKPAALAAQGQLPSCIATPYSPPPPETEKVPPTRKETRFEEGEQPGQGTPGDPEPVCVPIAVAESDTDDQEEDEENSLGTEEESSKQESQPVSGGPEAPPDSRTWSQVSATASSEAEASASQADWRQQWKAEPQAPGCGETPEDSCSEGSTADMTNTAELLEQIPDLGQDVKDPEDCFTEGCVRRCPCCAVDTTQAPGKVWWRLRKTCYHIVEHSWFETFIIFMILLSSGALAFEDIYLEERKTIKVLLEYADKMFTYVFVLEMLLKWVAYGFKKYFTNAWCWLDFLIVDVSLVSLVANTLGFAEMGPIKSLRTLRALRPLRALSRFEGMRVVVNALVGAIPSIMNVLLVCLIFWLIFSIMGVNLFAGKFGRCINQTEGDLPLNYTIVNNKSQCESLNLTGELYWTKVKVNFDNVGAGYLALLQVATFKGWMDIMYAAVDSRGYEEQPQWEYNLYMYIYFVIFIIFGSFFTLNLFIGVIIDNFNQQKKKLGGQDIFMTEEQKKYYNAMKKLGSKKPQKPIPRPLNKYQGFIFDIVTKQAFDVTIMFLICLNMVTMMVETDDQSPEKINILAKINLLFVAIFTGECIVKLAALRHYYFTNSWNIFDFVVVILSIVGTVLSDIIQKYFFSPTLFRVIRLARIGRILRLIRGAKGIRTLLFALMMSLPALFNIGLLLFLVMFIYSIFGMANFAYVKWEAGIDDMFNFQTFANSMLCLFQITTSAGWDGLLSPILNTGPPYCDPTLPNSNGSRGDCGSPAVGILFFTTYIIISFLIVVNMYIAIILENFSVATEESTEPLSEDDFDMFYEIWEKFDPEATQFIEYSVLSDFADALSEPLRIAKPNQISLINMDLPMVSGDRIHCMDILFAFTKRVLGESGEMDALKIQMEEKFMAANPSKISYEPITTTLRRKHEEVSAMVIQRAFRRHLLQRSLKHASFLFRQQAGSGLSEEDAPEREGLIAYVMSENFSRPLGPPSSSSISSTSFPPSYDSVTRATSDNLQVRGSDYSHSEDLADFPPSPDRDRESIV
T1 sequence (Q9UQD0 whole entry): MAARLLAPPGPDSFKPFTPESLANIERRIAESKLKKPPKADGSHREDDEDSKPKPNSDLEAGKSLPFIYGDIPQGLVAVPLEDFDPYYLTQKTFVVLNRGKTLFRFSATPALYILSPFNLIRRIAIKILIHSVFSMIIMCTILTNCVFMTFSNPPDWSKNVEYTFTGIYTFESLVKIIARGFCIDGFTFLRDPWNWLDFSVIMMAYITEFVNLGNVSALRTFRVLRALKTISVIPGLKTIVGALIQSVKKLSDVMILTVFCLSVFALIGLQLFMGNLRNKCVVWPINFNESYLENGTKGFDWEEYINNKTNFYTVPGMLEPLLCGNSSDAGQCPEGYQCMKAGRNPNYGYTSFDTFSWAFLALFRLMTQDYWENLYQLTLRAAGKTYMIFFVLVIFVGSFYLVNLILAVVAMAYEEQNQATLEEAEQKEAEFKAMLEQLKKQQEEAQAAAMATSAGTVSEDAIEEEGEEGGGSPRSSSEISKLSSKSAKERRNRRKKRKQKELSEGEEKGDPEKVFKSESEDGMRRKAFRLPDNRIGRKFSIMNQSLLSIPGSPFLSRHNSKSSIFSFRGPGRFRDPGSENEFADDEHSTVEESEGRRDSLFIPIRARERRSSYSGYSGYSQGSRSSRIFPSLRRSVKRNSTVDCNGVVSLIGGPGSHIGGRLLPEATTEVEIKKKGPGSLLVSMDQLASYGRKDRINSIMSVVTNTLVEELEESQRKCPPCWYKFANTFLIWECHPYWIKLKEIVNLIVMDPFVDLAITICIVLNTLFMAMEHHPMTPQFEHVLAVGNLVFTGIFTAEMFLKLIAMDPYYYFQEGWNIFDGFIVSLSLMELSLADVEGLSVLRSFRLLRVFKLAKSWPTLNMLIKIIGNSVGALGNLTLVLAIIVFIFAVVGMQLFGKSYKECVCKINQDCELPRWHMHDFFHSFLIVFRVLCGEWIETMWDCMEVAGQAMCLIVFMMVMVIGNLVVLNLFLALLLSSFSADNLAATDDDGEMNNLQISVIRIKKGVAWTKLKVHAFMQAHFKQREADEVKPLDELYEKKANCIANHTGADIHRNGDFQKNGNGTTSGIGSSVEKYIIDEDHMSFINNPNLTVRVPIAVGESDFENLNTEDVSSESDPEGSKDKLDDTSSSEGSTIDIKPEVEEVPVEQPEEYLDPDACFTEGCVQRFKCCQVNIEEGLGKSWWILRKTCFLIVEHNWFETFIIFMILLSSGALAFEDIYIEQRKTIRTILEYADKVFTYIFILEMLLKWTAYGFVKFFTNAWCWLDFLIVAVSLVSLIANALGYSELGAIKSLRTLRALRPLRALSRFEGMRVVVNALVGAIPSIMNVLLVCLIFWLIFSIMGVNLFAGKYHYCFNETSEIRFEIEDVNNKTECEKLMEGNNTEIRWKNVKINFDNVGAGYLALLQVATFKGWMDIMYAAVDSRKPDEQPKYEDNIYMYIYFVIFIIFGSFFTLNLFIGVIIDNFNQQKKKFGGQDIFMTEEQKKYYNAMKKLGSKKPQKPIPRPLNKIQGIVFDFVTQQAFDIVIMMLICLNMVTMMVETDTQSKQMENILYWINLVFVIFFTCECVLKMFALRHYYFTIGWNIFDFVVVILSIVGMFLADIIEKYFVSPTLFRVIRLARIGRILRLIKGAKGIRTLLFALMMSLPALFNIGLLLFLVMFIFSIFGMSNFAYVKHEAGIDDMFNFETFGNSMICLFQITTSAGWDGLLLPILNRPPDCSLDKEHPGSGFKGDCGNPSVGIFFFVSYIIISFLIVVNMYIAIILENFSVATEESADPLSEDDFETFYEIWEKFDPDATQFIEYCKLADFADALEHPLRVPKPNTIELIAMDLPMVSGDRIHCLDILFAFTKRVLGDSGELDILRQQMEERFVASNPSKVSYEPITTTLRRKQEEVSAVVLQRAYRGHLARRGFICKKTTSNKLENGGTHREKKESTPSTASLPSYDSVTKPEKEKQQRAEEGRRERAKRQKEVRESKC

In the case of `O=S(=O)(Nc1cscn1)c1cc(Cl)c(N[C@H](CN2CCCC2)c2ccccc2)cc1F` [Example 73, (S)-5-chloro-2-fluoro-4-((1-phenyl-2-(pyrrolidin-1-yl)ethyl)amino)-N-(thiazol-4-yl)benzenesulfonamide], the IC50 at NaV1.5 is 30 µM; on NaV1.6 [1], 1.14 µM; against NaV1.6 [2], 3.87 µM; at NaV1.1 [3], 23.1 µM; on NaV1.1 [4] it was 10 µM.
On the same counts, the results for `O=S(=O)(Nc1nccs1)c1cc(Cl)c(NC(CN2CCOCC2)c2ccccc2)cc1F` (stereo not shown) [Example 74, 5-chloro-2-fluoro-4-((2-morpholino-1-phenylethyl)amino)-N-(thiazol-2-yl)benzenesulfonamide 2,2,2-trifluoroacetate] are 30 µM, 0.052 µM, 0.521 µM, 2.52 µM and 1.85 µM.
Take `C[C@H](Nc1cc(F)c(S(=O)(=O)Nc2nccs2)cc1Cl)c1ccccc1Cl` [Example 78, (S)-5-chloro-4-((1-(2-chlorophenyl)ethyl)amino)-2-fluoro-N-(thiazol-2-yl)benzenesulfonamide]: the IC50 was 7.01 µM on NaV1.5; 0.015 µM at NaV1.6 [1]; 0.234 µM on NaV1.6 [2]; 4.17 µM on NaV1.1 [3]; 3.1 µM on NaV1.1 [4].
On the same counts, the results for `C[C@H](Nc1ccc(S(=O)(=O)Nc2nccs2)cc1Cl)c1ccccc1F` [Example 79, (S)-3-chloro-4-((1-(2-fluorophenyl)ethyl)amino)-N-(thiazol-2-yl)benzenesulfonamide] are 2.55 µM, 0.039 µM, 0.237 µM, 1.54 µM and 4.41 µM.
Regarding `O=S(=O)(Nc1nccs1)c1cc(Cl)c(O[C@H](c2ccccc2)C(F)(F)F)cc1F` [Example 80, (R)-5-chloro-2-fluoro-N-(thiazol-2-yl)-4-(2,2,2-trifluoro-1-phenylethoxy)benzenesulfonamide], the IC50 at NaV1.5 amounted to 5.75 µM; at NaV1.6 [1] it was 0.099 µM; against NaV1.6 [2] it was 1.74 µM; on NaV1.1 [3], 11.1 µM; at NaV1.1 [4] it was 10 µM.
On the same counts, the results for `CCC(Nc1ccc(S(=O)(=O)Nc2nccs2)cc1Cl)c1ccccn1` (stereo not shown) [Example 81, 3-chloro-4-((1-(pyridin-2-yl)propyl)amino)-N-(thiazol-2-yl)benzenesulfonamide] are 30 µM, 0.143 µM, 0.652 µM, 22.5 µM and 10 µM.
Take `C[C@H](Oc1ccc(S(=O)(=O)Nc2ncns2)cc1Cl)c1ccccc1` [Example 88, (S)-3-chloro-4-(1-phenylethoxy)-N-(1,2,4-thiadiazol-5-yl)benzenesulfonamide]: the IC50 on NaV1.5 worked out at 18.2 µM; against NaV1.6 [1], 0.184 µM; at NaV1.6 [2] it was 1.04 µM; against NaV1.1 [3] it was 30 µM; against NaV1.1 [4] it was 10 µM.
On the same counts, the results for `CC[C@H](Nc1cc(F)c(S(=O)(=O)Nc2cscn2)cc1Cl)c1ccccc1` [Example 89, (S)-5-chloro-2-fluoro-4-((1-phenylpropyl)amino)-N-(thiazol-4-yl)benzenesulfonamide] are 9.09 µM, 0.239 µM, 0.948 µM, 3.85 µM and 10 µM.
On the same counts, the results for `O=S(=O)(Nc1nccs1)c1ccc(N[C@@H](CO)c2ccccc2)c(Cl)c1` [Example 91, (R)-3-chloro-4-((2-hydroxy-1-phenylethyl)amino)-N-(thiazol-2-yl)benzenesulfonamide] are 30 µM, 0.341 µM, 0.927 µM, 10.7 µM and 10 µM.
As to `O=S(=O)(Nc1cscn1)c1cc(Cl)c(NCc2cccc3ccncc23)cc1F` [Example 96, 5-chloro-2-fluoro-4-((isoquinolin-8-ylmethyl)amino)-N-(thiazol-4-yl)benzenesulfonamide 2,2,2-trifluoroacetate], the IC50 came to 16 µM at NaV1.5; 0.098 µM against NaV1.6 [1]; 0.239 µM against NaV1.6 [2]; 12.6 µM at NaV1.1 [3]; 10 µM against NaV1.1 [4].
On the same counts, the results for `C[C@H](Oc1cc(F)c(S(=O)(=O)Nc2cscn2)cc1Cl)c1ccccc1F` [Example 101, (S)-5-chloro-2-fluoro-4-(1-(2-fluorophenyl)ethoxy)-N-(thiazol-4-yl)benzenesulfonamide] are 4.66 µM, 0.462 µM, 0.814 µM, 9.57 µM and 10 µM.
On the same counts, the results for `O=S(=O)(Nc1nccs1)c1ccc(NC2(c3ccccc3)COC2)c(Cl)c1` [Example 103, 3-chloro-4-((3-phenyloxetan-3-yl)amino)-N-(thiazol-2-yl)benzenesulfonamide] are 28.8 µM, 0.796 µM, 2.91 µM, 16.6 µM and 10 µM.
Take `O=S(=O)(Nc1nccs1)c1ccc(NC2(c3ccccc3)CCC2)c(Cl)c1` [Example 104, 3-chloro-4-((1-phenylcyclobutyl)amino)-N-(thiazol-2-yl)benzenesulfonamide]: the IC50 at NaV1.5 was 6.29 µM; on NaV1.6 [1], 0.153 µM; at NaV1.6 [2], 0.582 µM; at NaV1.1 [3] it was 4.43 µM; against NaV1.1 [4], 4.51 µM.
On the same counts, the results for `O=S(=O)(Nc1nccs1)c1cc(Cl)c(NC2(c3ccccc3)CCC2)cc1F` [Example 105, 5-chloro-2-fluoro-4-((1-phenylcyclobutyl)amino)-N-(thiazol-2-yl)benzenesulfonamide] are 10.6 µM, 0.027 µM, 0.564 µM, 3.73 µM and 3.6 µM.
As to `O=S(=O)(Nc1nccs1)c1cc(Cl)c(NC2(c3ccccc3F)CCC2)cc1F` [Example 107, 5-chloro-2-fluoro-4-((1-(2-fluorophenyl)cyclobutyl)amino)-N-(thiazol-2-yl)benzenesulfonamide], the IC50 on NaV1.5 worked out at 7.4 µM; against NaV1.6 [1], 0.138 µM; against NaV1.6 [2], 0.656 µM; at NaV1.1 [3], 10.3 µM; at NaV1.1 [4] it was 8.62 µM.
On the same counts, the results for `C[C@H](Oc1cc(F)c(S(=O)(=O)Nc2nccs2)cc1Cl)c1cccc(F)c1` [Example 114, (S)-5-chloro-2-fluoro-4-(1-(3-fluorophenyl)ethoxy)-N-(thiazol-2-yl)benzenesulfonamide] are 4.64 µM, 0.255 µM, 0.977 µM, 5.05 µM and 10 µM.
On the same counts, the results for `C[C@H](Oc1cc(F)c(S(=O)(=O)Nc2nccs2)cc1Cl)c1ccccc1` [Example 115, (S)-5-chloro-2-fluoro-4-(1-phenylethoxy)-N-(thiazol-2-yl)benzenesulfonamide] are 9.93 µM, 0.135 µM, 1.39 µM, 17.5 µM and 10 µM.
